Data from PubChem BioAssay AID1963827 (Molecular Pharmacology Branch, DTP, NCI, 2024).

Test system: 994946-033-R-J1-PDC complex spheroid viability
Test: Anticancer human tumor 994946-033-R-J1-PDC patient-derived melanoma cell line growth inhibition [POLQ]
Settings: for IC50: curve of first compound; for viability, T/C: stronger effect = lower value
Outline: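 Three-cell-type spheroids modelling solid tumor plus stroma served as the readout system; POL inhibitors were tested individually and in combination, concentration ranges set by clinical Cmax where known.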

[1] = second compound 0.0316 µM, first compound 0.0316 µM
[2] = second compound 0.0316 µM, first compound 0.1 µM
[3] = second compound 0.0316 µM, first compound 0.316 µM
[4] = second compound 0.0316 µM, first compound 1 µM
[5] = second compound 0.0316 µM, first compound 3.16 µM
[6] = second compound 0.0316 µM, first compound 10 µM
[7] = second compound 0.1 µM, first compound 0.0316 µM
[8] = second compound 0.1 µM, first compound 0.1 µM
[9] = second compound 0.1 µM, first compound 0.316 µM
[10] = second compound 0.1 µM, first compound 1 µM
[11] = second compound 0.1 µM, first compound 3.16 µM
[12] = second compound 0.1 µM, first compound 10 µM
[13] = second compound 0.316 µM, first compound 0.0316 µM
[14] = second compound 0.316 µM, first compound 0.1 µM
[15] = second compound 0.316 µM, first compound 0.316 µM
[16] = second compound 0.316 µM, first compound 1 µM
[17] = second compound 0.316 µM, first compound 3.16 µM
[18] = second compound 0.316 µM, first compound 10 µM
[19] = second compound 1 µM, first compound 0.0316 µM
[20] = second compound 1 µM, first compound 0.1 µM
[21] = second compound 1 µM, first compound 0.316 µM
[22] = second compound 1 µM, first compound 1 µM
[23] = second compound 1 µM, first compound 3.16 µM
[24] = second compound 1 µM, first compound 10 µM
[25] = second compound 3.16 µM, first compound 0.0316 µM
[26] = second compound 3.16 µM, first compound 0.1 µM
[27] = second compound 3.16 µM, first compound 0.316 µM
[28] = second compound 3.16 µM, first compound 1 µM
[29] = second compound 3.16 µM, first compound 3.16 µM
[30] = second compound 3.16 µM, first compound 10 µM
[31] = second compound 10 µM, first compound 0.0316 µM
[32] = second compound 10 µM, first compound 0.1 µM
[33] = second compound 10 µM, first compound 0.316 µM
[34] = second compound 10 µM, first compound 1 µM
[35] = second compound 10 µM, first compound 3.16 µM
[36] = second compound 10 µM, first compound 10 µM
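Further: spheroids exposed to drugs for 7 days.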
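Wherever viability, T/C is given: 100% = DMSO vehicle treated spheroids.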

Question: For `CC1COCCN1c1cc(C2(S(C)(=N)=O)CC2)nc(-c2ccnc3[nH]ccc23)n1` (stereo unspecified) + Cc1cccc(N(C)C(=O)C2C(O)CCN2c2nc(C)cc(C(F)(F)F)c2C#N)c1, which IC50 (second compound 0.0316 µM) is on record?
Answer: > 10 µM

Question: And the IC50 (second compound 0.1 µM)?
Answer: 4.26 µM

Question: And the IC50 (second compound 0.316 µM)?
Answer: 4.2 µM

Question: What about the IC50 (second compound 1 µM) of the same compound?
Answer: 1.87 µM

Question: And the IC50 (second compound 3.16 µM)?
Answer: > 10 µM

Question: What about the IC50 (second compound 10 µM) of the same compound?
Answer: 6.24 µM

Question: And the viability, T/C [1]?
Answer: 103%

Question: What about the viability, T/C [2] of the same compound?
Answer: 111%

Question: What about the viability, T/C [3] of the same compound?
Answer: 112%

Question: What about the viability, T/C [4] of the same compound?
Answer: 61.2%

Question: What about the viability, T/C [5] of the same compound?
Answer: 59.8%

Question: And the viability, T/C [6]?
Answer: 46.8%

Question: And the viability, T/C [7]?
Answer: 71.6%

Question: What about the viability, T/C [8] of the same compound?
Answer: 113%

Question: And the viability, T/C [9]?
Answer: 109%

Question: What about the viability, T/C [10] of the same compound?
Answer: 82.2%

Question: And the viability, T/C [11]?
Answer: 58.8%

Question: And the viability, T/C [12]?
Answer: 28.4%

Question: What about the viability, T/C [13] of the same compound?
Answer: 110%

Question: What about the viability, T/C [14] of the same compound?
Answer: 117%

Question: And the viability, T/C [15]?
Answer: 104%

Question: And the viability, T/C [16]?
Answer: 78.8%

Question: And the viability, T/C [17]?
Answer: 48.8%

Question: And the viability, T/C [18]?
Answer: 48.4%

Question: And the viability, T/C [19]?
Answer: 101%

Question: And the viability, T/C [20]?
Answer: 92%

Question: What about the viability, T/C [21] of the same compound?
Answer: 76.2%

Question: And the viability, T/C [22]?
Answer: 64.6%

Question: What about the viability, T/C [23] of the same compound?
Answer: 36.8%

Question: And the viability, T/C [24]?
Answer: 33.7%

Question: What about the viability, T/C [25] of the same compound?
Answer: 94.5%

Question: What about the viability, T/C [26] of the same compound?
Answer: 110%

Question: And the viability, T/C [27]?
Answer: 97.5%

Question: What about the viability, T/C [28] of the same compound?
Answer: 53.5%

Question: And the viability, T/C [29]?
Answer: 53.2%

Question: And the viability, T/C [30]?
Answer: 52.8%

Question: And the viability, T/C [31]?
Answer: 96.5%

Question: What about the viability, T/C [32] of the same compound?
Answer: 103%

Question: And the viability, T/C [33]?
Answer: 92.2%

Question: What about the viability, T/C [34] of the same compound?
Answer: 75.1%

Question: What about the viability, T/C [35] of the same compound?
Answer: 64.3%

Question: What about the viability, T/C [36] of the same compound?
Answer: 41.3%

Question: With `CNCc1ccc(-c2[nH]c3cc(F)cc4c3c2CCNC4=O)cc1` + Cc1cccc(N(C)C(=O)C2C(O)CCN2c2nc(C)cc(C(F)(F)F)c2C#N)c1 as the compound, how does the IC50 (second compound 0.0316 µM) read?
Answer: > 10 µM

Question: And the IC50 (second compound 0.1 µM)?
Answer: > 10 µM

Question: And the IC50 (second compound 0.316 µM)?
Answer: > 10 µM

Question: What about the IC50 (second compound 1 µM) of the same compound?
Answer: > 10 µM

Question: And the IC50 (second compound 3.16 µM)?
Answer: > 10 µM

Question: And the IC50 (second compound 10 µM)?
Answer: > 10 µM

Question: What about the viability, T/C [1] of the same compound?
Answer: 88.4%

Question: And the viability, T/C [2]?
Answer: 103%

Question: What about the viability, T/C [3] of the same compound?
Answer: 132%

Question: And the viability, T/C [4]?
Answer: 77.5%

Question: What about the viability, T/C [5] of the same compound?
Answer: 94.8%

Question: What about the viability, T/C [6] of the same compound?
Answer: 78.8%

Question: And the viability, T/C [7]?
Answer: 85.5%

Question: And the viability, T/C [8]?
Answer: 117%

Question: And the viability, T/C [9]?
Answer: 102%

Question: And the viability, T/C [10]?
Answer: 81.4%

Question: And the viability, T/C [11]?
Answer: 92%

Question: What about the viability, T/C [12] of the same compound?
Answer: 92.7%

Question: What about the viability, T/C [13] of the same compound?
Answer: 113%

Question: And the viability, T/C [14]?
Answer: 115%

Question: What about the viability, T/C [15] of the same compound?
Answer: 90.9%

Question: And the viability, T/C [16]?
Answer: 78.8%

Question: And the viability, T/C [17]?
Answer: 92.8%

Question: And the viability, T/C [18]?
Answer: 106%

Question: What about the viability, T/C [19] of the same compound?
Answer: 105%

Question: And the viability, T/C [20]?
Answer: 101%

Question: And the viability, T/C [21]?
Answer: 89.9%

Question: And the viability, T/C [22]?
Answer: 73.1%

Question: And the viability, T/C [23]?
Answer: 112%

Question: What about the viability, T/C [24] of the same compound?
Answer: 104%

Question: And the viability, T/C [25]?
Answer: 107%

Question: And the viability, T/C [26]?
Answer: 90.5%

Question: What about the viability, T/C [27] of the same compound?
Answer: 109%

Question: And the viability, T/C [28]?
Answer: 100%

Question: What about the viability, T/C [29] of the same compound?
Answer: 109%

Question: And the viability, T/C [30]?
Answer: 89.4%

Question: And the viability, T/C [31]?
Answer: 103%

Question: What about the viability, T/C [32] of the same compound?
Answer: 79%

Question: And the viability, T/C [33]?
Answer: 118%

Question: What about the viability, T/C [34] of the same compound?
Answer: 91.2%

Question: What about the viability, T/C [35] of the same compound?
Answer: 86.8%

Question: And the viability, T/C [36]?
Answer: 83.2%

Question: With `C=CC(=O)N1CCN(c2nc(=O)n(-c3c(C)ccnc3C(C)C)c3nc(-c4c(O)cccc4F)c(F)cc23)C(C)C1` (stereo unspecified) + COC1C(OC(N)=O)C(O)C(Oc2ccc3c(O)c(NC(=O)c4ccc(O)c(CC=C(C)C)c4)c(=O)oc3c2C)OC1(C)C as the compound, how does the IC50 (second compound 0.0316 µM) read?
Answer: > 10 µM

Question: What about the IC50 (second compound 0.1 µM) of the same compound?
Answer: > 10 µM

Question: And the IC50 (second compound 0.316 µM)?
Answer: > 10 µM

Question: And the IC50 (second compound 1 µM)?
Answer: > 10 µM

Question: And the IC50 (second compound 3.16 µM)?
Answer: > 10 µM

Question: And the IC50 (second compound 10 µM)?
Answer: > 10 µM

Question: What about the viability, T/C [1] of the same compound?
Answer: 80.4%

Question: And the viability, T/C [2]?
Answer: 110%

Question: What about the viability, T/C [3] of the same compound?
Answer: 104%

Question: What about the viability, T/C [4] of the same compound?
Answer: 101%

Question: What about the viability, T/C [5] of the same compound?
Answer: 104%

Question: And the viability, T/C [6]?
Answer: 95.5%

Question: And the viability, T/C [7]?
Answer: 102%

Question: And the viability, T/C [8]?
Answer: 105%

Question: What about the viability, T/C [9] of the same compound?
Answer: 87.5%

Question: What about the viability, T/C [10] of the same compound?
Answer: 99.5%

Question: What about the viability, T/C [11] of the same compound?
Answer: 90.8%

Question: And the viability, T/C [12]?
Answer: 114%

Question: What about the viability, T/C [13] of the same compound?
Answer: 92.8%

Question: What about the viability, T/C [14] of the same compound?
Answer: 111%

Question: And the viability, T/C [15]?
Answer: 119%

Question: What about the viability, T/C [16] of the same compound?
Answer: 99%

Question: And the viability, T/C [17]?
Answer: 138%

Question: What about the viability, T/C [18] of the same compound?
Answer: 104%

Question: What about the viability, T/C [19] of the same compound?
Answer: 112%

Question: And the viability, T/C [20]?
Answer: 93.5%

Question: And the viability, T/C [21]?
Answer: 118%

Question: And the viability, T/C [22]?
Answer: 85.9%

Question: What about the viability, T/C [23] of the same compound?
Answer: 112%

Question: And the viability, T/C [24]?
Answer: 75.7%

Question: What about the viability, T/C [25] of the same compound?
Answer: 94%

Question: And the viability, T/C [26]?
Answer: 108%

Question: And the viability, T/C [27]?
Answer: 113%

Question: What about the viability, T/C [28] of the same compound?
Answer: 105%

Question: And the viability, T/C [29]?
Answer: 93.3%

Question: And the viability, T/C [30]?
Answer: 115%

Question: What about the viability, T/C [31] of the same compound?
Answer: 98.1%

Question: What about the viability, T/C [32] of the same compound?
Answer: 81.7%

Question: And the viability, T/C [33]?
Answer: 99.9%

Question: What about the viability, T/C [34] of the same compound?
Answer: 124%

Question: And the viability, T/C [35]?
Answer: 86.9%

Question: And the viability, T/C [36]?
Answer: 105%
